# From patent publication US12679824B2 (Hoffmann-La Roche Inc., priority 2020, dated 2026)
# Where two headings read alike, the source gives them in different places.
# Tests used:
# [1] = system: Acinetobacter baumannii ATCC17978; experiment: Minimal Inhibitory Concentration (MIC) assay; format: cell-based; conditions: read-out: ATCC 17978 MIC
# Protocol: Minimal Inhibitory Concentration Protocol (MIC) Assay:
# Table 2 provides the in vitro potency of the compounds of present invention obtained against the strain Acinetobacter baumannii ATCC17978, which was assessed by an MIC (Minimal Inhibitory Concentration) assay as follows.
# Test compounds were prepared from 10 mM DMSO stock solutions. The top dose was diluted from 10 mM to 2.5 mM by DMSO, followed by serial 2-fold 11 points dilutions in DMSO in a master plate (Greiner, Cat No: 651201). 2 μL compounds were transferred from the master plate into a new 96-well assay plate (Costar, 3599).
# The growth medium […] Mueller Hinton Broth (CAMHB) was prepared by adding 22 g powder (BD, 212322) in 1 L purified water, autoclaved, and supplemented with sterilized CaCl2) (20 mg per liter) and MgCl2 (10 mg per liter).
# Vials of each of the test microorganisms were maintained frozen in the vapor phase of a liquid nitrogen freezer. Took out the bacterial strain ATCC 17978 from liquid nitrogen freezer, thawed it at room temperature, and diluted the bacterial in the CAMHB medium to achieve a final inoculum of 2×10^5 CFU/mL. 98 μL of the adjusted bacteria suspension was dispensed to the assay plate and pipetted 5 times.
# Then the assay plates were incubated for 20 hours at 35±2° C. in ambient air with humidity. Following incubation, MIC (μg/mL) value, the lowest concentration of drug that inhibits visible growth of the microorganism, was recorded by visual judgment of bacterial growth through magnification mirror of MIC reader, and the assay plates were photographed with Qcount system as image raw data. Meanwhile, the OD600 of assay plates was recorded with SpectraMax Plus384 as OD raw data.
# [2] = system: Acinetobacter baumannii ATCC17961; experiment: 90% Growth Inhibitory Concentration (IC90) determination, antimicrobial susceptibility testing; format: cell-based; conditions: Acinetobacter baumannii, ATCC17961, 16 h, Acinetobacter baumannii ATCC17961; Iso-Sensitest broth; growth by optical density at 600 nm over 16h; concentration inhibiting 90% of the growth; read-out: ATCC 17961 IC90
# In short: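 Broth microdilution in Iso-Sensitest medium, compounds twofold diluted (e.g. 50–0.097 μM final), inoculum ~5×10^(5) CFU/ml, 35±2° C. OD600 was read every 20 min over 16 h. IC90 was derived from growth inhibition during logarithmic growth.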
# [3] = Acinetobacter baumannii ATCC17978, CAMHB, 20 hours at 35±2° C., lowest concentration that inhibits visible growth
Structure (SMILES),"MIC [1, 3]",further results
"COc1cnc(-n2cc(-c3cnc(C(=O)Nc4ccc(C(=O)N5CCN(C(=O)C6CCNCC6)CC5)c(Cl)c4)n3C)c(C(F)(F)F)n2)nc1.O=CO [Example A4, N-[3-chloro-4-[4-(piperidine-4-carbonyl)piperazine-1-carbonyl]phenyl]-5-[1-(5-methoxypyrimidin-2-yl)-3-(trifluoromethyl)pyrazol-4-yl]-1-methyl-imidazole-2-carboxamide]",2.19 µg/mL,–
"COCCOc1ccc(-n2cc(-c3cnc(C(=O)Nc4ccc(C(=O)N5CCN(C(=O)C6CCNCC6)CC5)c(Cl)c4)n3C)c(C(F)(F)F)n2)nc1.O=CO [Example A7, N-[3-chloro-4-[4-(piperidine-4-carbonyl)piperazine-1-carbonyl]phenyl]-5-[1-[5-(2-methoxyethoxy)-2-pyridyl]-3-(trifluoromethyl)pyrazol-4-yl]-1-methyl-imidazole-2-carboxamide]",1.16 µg/mL,–
"CN(C)c1ccnc(-n2ncc(-c3cnc(C(=O)Nc4ccc(C(=O)N5CCN(C(=O)C6CCNCC6)CC5)c(Cl)c4)n3C)c2C(F)(F)F)n1.O=C(O)C(F)(F)F [Example A18, N-[3-chloro-4-[4-(piperidine-4-carbonyl)piperazine-1-carbonyl]phenyl]-5-[1-[4-(dimethylamino)pyrimidin-2-yl]-5-(trifluoromethyl)pyrazol-4-yl]-1-methyl-imidazole-2-carboxamide]",2.23 µg/mL,–
"Cc1nn(-c2ccc(N)cn2)cc1-c1cnc(C(=O)Nc2ccc(C(=O)N3CCN(C(=O)C4CCN(C)CC4)CC3)c(Cl)c2)n1C [Example C12, 5-[1-(5-amino-2-pyridyl)-3-methyl-pyrazol-4-yl]-N-[3-chloro-4-[4-(1-methylpiperidine-4-carbonyl)piperazine-1-carbonyl]phenyl]-1-methyl-imidazole-2-carboxamide]",38 µg/mL,–
"CCc1nn(-c2ccc(N)cn2)cc1-c1cnc(C(=O)Nc2ccc(C(=O)N3CCN(C(=O)C4CCN(C)CC4)CC3)c(Cl)c2)n1C [Example C13, 5-[1-(5-amino-2-pyridyl)-3-ethyl-pyrazol-4-yl]-N-[3-chloro-4-[4-(1-methylpiperidine-4-carbonyl)piperazine-1-carbonyl]phenyl]-1-methyl-imidazole-2-carboxamide]",16.5 µg/mL,–
"CN1CCC(C(=O)N2CCN(C(=O)c3ccc(NC(=O)c4ncc(-c5cn(-c6ccc(N)nn6)nc5C(F)(F)F)n4C)cc3Cl)CC2)CC1 [Example C14, 5-[1-(6-aminopyridazin-3-yl)-3-(trifluoromethyl)pyrazol-4-yl]-N-[3-chloro-4-[4-(1-methylpiperidine-4-carbonyl)piperazine-1-carbonyl]phenyl]-1-methyl-imidazole-2-carboxamide]",5.09 µg/mL,–
"CNc1ccc(-n2cc(-c3cnc(C(=O)Nc4ccc(C(=O)N5CCN(C(=O)C6CCNCC6)CC5)c(Cl)c4)n3C)c(C(F)(F)F)n2)nc1 [Example D1, N-[3-chloro-4-[4-(piperidine-4-carbonyl)piperazine-1-carbonyl]phenyl]-1-methyl-5-[1-[5-(methylamino)-2-pyridyl]-3-(trifluoromethyl)pyrazol-4-yl]imidazole-2-carboxamide]",–,"MIC ([1]; Acinetobacter baumannii, ATCC17978, 20 h): 0.55 µg/mL"
CNc1ccc(-n2cc(-c3cnc(C(=O)Nc4ccc(C(=O)N5CCN(C(=O)[C@@H]6CCNC[C@H]6O)CC5)c(Cl)c4)n3C)c(C(F)(F)F)n2)nc1.O=CO [Example D2],1.12 µg/mL,–
"CNc1ccc(-n2cc(-c3cnc(C(=O)Nc4ccc(C(=O)N5CCN(C(=O)C6(O)CCNCC6)CC5)c(Cl)c4)n3C)c(C(F)(F)F)n2)nc1.O=CO [Example D3, N-[3-chloro-4-[4-(4-hydroxypiperidine-4-carbonyl)piperazine-1-carbonyl]phenyl]-1-methyl-5-[1-[5-(methylamino)-2-pyridyl]-3-(trifluoromethyl)pyrazol-4-yl]imidazole-2-carboxamide]",1.16 µg/mL,–
"Cn1c(-c2cn(-c3ncccn3)nc2C(F)(F)F)cnc1C(=O)Nc1ccc(C(=O)N[C@H]2[C@@H]3CN(C(=O)[C@@H]4C[C@@H](O)CN4)C[C@@H]32)c(Cl)c1.O=CO [Example F2, N-[3-chloro-4-[[(1R,5S)-3-[(2S,4R)-4-hydroxypyrrolidine-2-carbonyl]-3-azabicyclo[3.1.0]hexan-6-yl]carbamoyl]phenyl]-1-methyl-5-[1-pyrimidin-2-yl-3-(trifluoromethyl)pyrazol-4-yl]imidazole-2-carboxamide]",4.43 µg/mL,–
"Cn1c(-c2cn(-c3ncccn3)nc2C(F)(F)F)cnc1C(=O)Nc1ccc(C(=O)N[C@H]2[C@@H]3CN(C(=O)C4CCNCC4)C[C@@H]32)c(Cl)c1.O=CO [Example F3, N-[3-chloro-4-[[(1S,5R)-3-(piperidine-4-carbonyl)-3-azabicyclo[3.1.0]hexan-6-yl]carbamoyl]phenyl]-1-methyl-5-[1-pyrimidin-2-yl-3-(trifluoromethyl)pyrazol-4-yl]imidazole-2-carboxamide]",4.41 µg/mL,–
"Cn1c(-c2cn(-c3cc(N)c(N)cn3)nc2C(F)(F)F)cnc1C(=O)Nc1ccc(C(=O)N2CCN(C(=O)C3CCNCC3)CC2)c(Cl)c1 [Example Z87, N-[3-chloro-4-[4-(piperidine-4-carbonyl)piperazine-1-carbonyl]phenyl]-5-[1-(4,5-diamino-2-pyridyl)-3-(trifluoromethyl)pyrazol-4-yl]-1-methyl-imidazole-2-carboxamide]",–,IC90 [2]: 540 nM
"Cn1c(-c2cn(-c3ccc(NC(=O)C4CCNCC4)cn3)nc2C(F)(F)F)cnc1C(=O)Nc1ccc(C(=O)N2CCN(C(=O)C3CCNCC3)CC2)c(Cl)c1 [Example Z88, N-[6-[4-[2-[[3-chloro-4-(4-isonipecotoylpiperazine-1-carbonyl)phenyl]carbamoyl]-3-methyl-imidazol-4-yl]-3-(trifluoromethyl)pyrazol-1-yl]-3-pyridyl]isonipecotamide]",–,IC90 [2]: 980 nM
"Cn1c(-c2cn(-c3ccc(NCCN)cn3)nc2C(F)(F)F)cnc1C(=O)Nc1ccc(C(=O)N2CCN(C(=O)C3CCNCC3)CC2)c(Cl)c1 [Example Z89, 5-[1-[5-(2-aminoethylamino)-2-pyridyl]-3-(trifluoromethyl)pyrazol-4-yl]-N-[3-chloro-4-(4-isonipecotoylpiperazine-1-carbonyl)phenyl]-1-methyl-imidazole-2-carboxamide]",–,IC90 [2]: 100 nM
